Laboratory results as given in patent publication US11235001B2, “RUNX inhibitor” (KYOTO UNIVERSITY, priority 2016, dated 2022).

What was measured:
[1] = test system: BCL11A, TRIM24, p53, p21, BAX, PUMA and MDM2; assay: qRT-PCR of p53 suppressors and p53 target genes in MV4-11 cells; assay type: cell-based, human; conditions: 1 μM, 6 hours
Procedure: A total RNA was isolated with RNeasy mini kit (Qiagen) and reverse transcribed with Reverse script kit (TOYOBO) to generate cDNA. Real-time quantitative polymerase chain reaction (PCR) was carried out with 7500 Real-Time PCR System (Applied Biosystems) according to the manufacturer's instructions. Results were normalized to GAPDH levels. Relative expression levels were calculated using the 2-ΔΔCt method.

CD62E (E-selectin) = assay: FACS of cell surface CD62E (E-selectin) in HUVEC; assay type: cell-based, human; conditions: 1 μM, 24 hours
Procedure: Using HUVEC, changes in expression levels of E-selectin by the RUNX inhibitor and RUNX knockdown were analyzed by FACS (fluorescence-activated cell sorter). To HUVEC, 1 μM of Chb-M′ was administered. After 24 hours, different antibodies were used for immunostaining and changes in the cell surface expression of CD62E (E-selectin) were measured. As a control, DMSO was administered. In addition, HUVEC in which RUNX1 gene expression was knockdown by sh_RUNX1 #2 were immunostained using different antibodies to measure changes in the cell surface expression of CD62E (E-selectin). As a control, the cells were knockdown by a siRNA targeting luciferase (sh_Luc.). As the antibodies, an anti-human CD62E (E-selectin) antibody (manufactured by eBioscience) and an isotype antibody (mouse IgG1) of anti-human CD62E (E-selectin) antibody (manufactured by eBioscience) were used.

Q: For `CN(C)CCCNC(=O)c1cc(NC(=O)c2cc(NC(=O)c3cc(NC(=O)c4cc(NC(=O)CCCNC(=O)c5nc(NC(=O)c6nc(NC(=O)c7cc(NC(=O)c8nc(NC(=O)CCNC(=O)CCCc9ccc(N(CCCl)CCCl)cc9)cn8C)cn7C)cn6C)cn5C)cn4C)cn3C)cn2C)cn1C` [Chb-M′], which “Gene expressions of p53 suppressors BCL11A and TRIM24” value [1] is on record?
A: Its value is “down-regulated”.

Q: And the “mRNA expression level of p53” value [1]?
A: The value was “unchanged”.

Q: And the “mRNA expression levels of p21 and PUMA” value [1]?
A: Its value is “increased”.

Q: What about the “Cell surface expression of E-selectin (FACS)” value (CD62E (E-selectin)) of the same compound?
A: The value was “decrease”.
